US20250312343A1, “COMBINATION THERAPIES USING PRMT5 INHIBITORS AND KRAS G12D INHIBITORS FOR THE TREATMENT OF CANCER” (MIRATI THERAPEUTICS, INC., priority 2024, published 2025)

Experiments:
[1] = tested on: MTAP^DEL and KRAS^G12D pancreatic tumor xenograft KP4 model; assay: MRTX1719 + KRAS G12D inhibitor combination study, KP4 xenograft; assay type: in vivo, nu/nu mice; conditions: MRTX1133 30 mg/kg BID IP; for Tumor volume: n=5/group, method gives mm^3, in mm³; for % TGI (Tumor Growth Inhibition): final vs initial treated tumor volume relative to vehicle, MRTX1719 100 mg/kg QD PO
Method: (§1) Immunodeficient female mice were implanted with human cancer models harboring homozygous deletion of the MTAP gene (MTAP^DEL) and a KRAS^G12D mutation. Mouse health was monitored daily, and caliper measurements began when tumors were palpable. Tumor volume measurements were determined utilizing the formula 0.5×L×W2 in which L refers to length and W refers to width of each tumor. When tumors reached approximately 200-300 mm^3, animals were randomized to receive A) vehicle, B) a PRMT5 inhibitor administered orally (PO) formulated in 0.5% methylcellulose (4000 cps)/0.2% Tween80 in water, C) KRAS G12D inhibitor administered via intraperitoneal injection (IP) formulated in 10% Captisol in 50 mM Citrate buffer pH 5.0, or D) the PRMT5 inhibitor and KRAS G12D inhibitor. Tumor volumes were measured twice a week (n=5/treatment group). Tumor Growth Inhibition (% TGI) was calculated when the average final treated tumor volume was greater than initial treated tumor volume using the formula: (1-(Final Drug Treated Tumor Volume—Initial Drug Treated Tumor Volume)/(Final Vehicle Treated Tumor Volume -Initial Vehicle Treated Tumor Volume))*100. Percent Regression (% Regression) was calculated when the average tumor volume of final treated tumors was less than initial treated tumor volume using the formula: (−100%)*(1−((Final treated tumor volume)/(Initial treated tumor volume)).
(§2) This example was conducted in immunodeficient female nu/nu mice that were implanted with 5×10^6 KP4 pancreatic cancer cells in 50% Matrigel. according to the study procedure described above. The PRMT5 inhibitor was MRTX1719 administered at 100 mg/kg once a day (QD). MRTX1719 used is a described herein.
(§3) The KRAS^G12D inhibitor used in this example was MRTX1133 administered at 30 mg/kg twice a day (BID). MRTX1133 used is as described herein.

[2] = tested on: MTAP^DEL and KRAS^G12D pancreatic tumor xenograft SU8686 model; assay: MRTX1719 + KRAS G12D inhibitor combination study, SU8686 xenograft; assay type: in vivo, nu/nu mice; conditions: for Tumor volume: MRTX1133 30 mg/kg BID IP, n=5/group, method gives mm^3
Method: as §1
as §2, with “5×10^6 SU8686” for “5×10^6 KP4”, “is as” for “is a”
as §3

[3] = Study Day 0, MRTX1719 100 mg/kg QD PO
[4] = Study Day 3, MRTX1719 100 mg/kg QD PO
[5] = Study Day 7, MRTX1719 100 mg/kg QD PO
[6] = Study Day 10, MRTX1719 100 mg/kg QD PO
[7] = Study Day 14, MRTX1719 100 mg/kg QD PO
[8] = Study Day 17, MRTX1719 100 mg/kg QD PO
[9] = Study Day 21, MRTX1719 100 mg/kg QD PO
[10] = Study Day 24, MRTX1719 100 mg/kg QD PO
[11] = Study Day 28, MRTX1719 100 mg/kg QD PO
[12] = Study Day 31, MRTX1719 100 mg/kg QD PO
[13] = Study Day 2, MRTX1719 100 mg/kg QD PO
[14] = Study Day 9, MRTX1719 100 mg/kg QD PO
[15] = Study Day 13, MRTX1719 100 mg/kg QD PO
[16] = Study Day 16, MRTX1719 100 mg/kg QD PO
[17] = Study Day 20, MRTX1719 100 mg/kg QD PO
[18] = Study Day 23, MRTX1719 100 mg/kg QD PO
[19] = Study Day 34, MRTX1719 100 mg/kg QD PO
[20] = Study Day 37, MRTX1719 100 mg/kg QD PO
[21] = Study Day 41, MRTX1719 100 mg/kg QD PO
[22] = Study Day 44, MRTX1719 100 mg/kg QD PO
[23] = Study Day −1, MRTX1719 100 mg/kg QD PO

Compound	Tumor volume [1, 3]	Tumor volume [1, 4]	Tumor volume [1, 5]	Tumor volume [1, 6]	Tumor volume [1, 7]	Tumor volume [1, 8]	Tumor volume [1, 9]	Tumor volume [1, 10]	% TGI (Tumor Growth Inhibition) [1] [%]	Tumor volume [2, 13] [mm³]	Tumor volume [2, 5] [mm³]	Tumor volume [2, 14] [mm³]	Tumor volume [2, 15] [mm³]	Tumor volume [2, 16] [mm³]	Tumor volume [2, 17] [mm³]	Tumor volume [2, 18] [mm³]	Tumor volume [2, 11] [mm³]	Tumor volume [2, 12] [mm³]	Tumor volume [2, 19] [mm³]	Tumor volume [2, 20] [mm³]	further results
C#Cc1c(F)ccc2cc(O)cc(-c3ncc4c(N5CC6CCC(C5)N6)nc(OC[C@@]56CCCN5C[C@H](F)C6)nc4c3F)c12 [MRTX1133]	276	202	132	99	80	91	144	250	53.8	180	143	142	146	145	164	166	151	183	191	209	Tumor volume [1, 11]: 518; Tumor volume [1, 12]: 766; Tumor volume ([1]; Study Day 35, MRTX1719 100 mg/kg QD PO): 1064; Tumor volume [2, 21]: 213 mm³; Tumor volume [2, 22]: 204 mm³; Tumor volume [2, 23]: 212 mm³; % Regression ([2]; final vs initial treated tumor volume, MRTX1133 30 mg/kg BID IP alone or with MRTX1719 100 mg/kg QD PO): −4.2%
Cn1ncc(-c2ccc3c(=O)[nH]nc(CN)c3c2)c1-c1c(F)c(Cl)cc(OC2CC2)c1C#N [MRTX1719]	277	431	616	716	772	887	1222	1487	29.1	255	317	369	415	464	467	419	396	373	372	362	Tumor volume [2, 21]: 356 mm³; Tumor volume [2, 22]: 337 mm³; Tumor volume [2, 23]: 200 mm³; % TGI (Tumor Growth Inhibition) ([2]; final vs initial treated tumor volume relative to vehicle, MRTX1719 100 mg/kg QD PO): 88.3%
